Here are results for one compound from patent US20120122965A1, “COMPOSITIONS FOR SKIN PROTECTION AND IMPROVEMENT OF SKIN DISEASES CONTAINING THE DIBENZO-P-DIOXINE DERIVATIVES” (priority 2007, published 2012).

Series [1] concerns NB1RGB cells (normal human fibroblast cell line from skin). To be noted: concentration that reaches 50% of apoptosis, 1 hour incubation. On the procedure: (§1) The cytotoxicity of the compositions to the normal skin cell was assessed using the NHEK (F) cells (normal human epidermal keratinocytes of neonatal foreskin cell) and the NB1RGB cells (normal human fibroblast cell line from skin). NHEK (F) and NB1RGB cells, which are main components of the epidermis and Bemis in normal human skin, produce collagen and elastin and provide skin elasticity.
(§2) The mixture of PMS/WST-1 (1-methoxy-5-methylphenazinium methyl sulfate/2-(4-indophenyl)-3-(4-nitrophenyl)-5-(2,4-disulfo phenyl)-2H-tetrazolium monosodium salt) was added to the medium and incubated for 1 hour to generate soluble formosan, and then the absorbance was measured at 415 nm using spectrophotometer. The cells treated with solvent without the compositions were used as a negative control, whereas the cells treated with 1% (w/v) SDS solution were used as a positive control (100% cell apoptosis).
(§3) apoptosis(%)=(A0−A/A0−As)×100 [Equation]
(§4) A0=absorbance of the cell that was not treated with the composition
(§5) A=absorbance of the cell that was treated with the composition […]
(§6) As=absorbance of the cell that was treated with 1% (w/v) SDS (positive control group)

The test system of series [2] is NHEK (F) cells (normal human epidermal keratinocytes of neonatal foreskin cell). To be noted: concentration that reaches 50% of apoptosis, 1 hour incubation. On the procedure:
as §1, §2, §3, §4, §5, §6

For series [3], the system named is B-16 cells (mouse melanoma, ATCC CRL 6323). Kind of series: Inhibition of melanin synthesis. The class given is cell-based. To be noted: 50 μg/ml, 3 days, vs solvent control. As to the method: Catechin, rasveratrol, isoflavone, kojic acid, ascorbic acid, and Moriradicis cortex extracts were used as positive controls.
The B-16 cells (mouse melanoma, ATCC CRL 6323) were maintained in the DMEM medium supplemented 4.5 g/E of glucose, 10% serum, and 1% antibiotic at 37° C. for 24 hours. After the cell was incubated with 0.05% trypsin containing 0.02% EDTA, the cell was plated and incubated for 48 hours. The cells were treated with 50 μg/ml of compositions 1 to 18, or positive controls and incubated at 37° C. for 3 days. The cells were then added with 1 me of lysis buffer (phosphate buffer solution, 0.02% EDTA, 0.05% trypsin) and centrifuged for 5 min After the cells were treated with 5% trichloro acetate (TCA), the farmed melanin was separated and dissolved in 1N NaOH. The absorbance was measured at 475 nm using spectrophotometer. Concentration of melanin was determined by the standard curve of synthetic melanin (SIGMA CO. USA). The cell treated with the same amount of solvent was used as a negative control. The inhibitory effects of each composition on melanin synthesis were determined by following Equation.
{1−(M/M0)}×100 [Equation]
M: amount of melanin of test group or positive controls
M0: amount of melanin of negative control

The subject of a further series is elastase. Kind of series: Inhibition of elastase. Type of series: biochemical. The note with it: 50 μg/ml, 10 nM elastase, 25° C., 10 min. As to the method: Catechin, rasveratrol, isoflavone, lactokine were used for positive controls. […] The cell treated with the same amount of solvent was used as a negative control. The inhibitory effects of each sample on elastase were determined by following Equation. The results are described in Table 3. {1−(E/E0)}×100 [Equation] E: The absorbance of test group or positive control E0: The absorbance of negative control

The subject of series [4] is pro-inflammatory cytokines (IL-1α, IL-1β, IL-6, IL-8, and TNF-α). The series is described as follows: Suppression of inflammatory gene expression induced by UV exposure in NHEK cells. The note with it: 50 μg/ml, UVB 40 mJ, compared with positive control (UVB only), FIG. 3. Type of series: cell-based, human. As to the method: The anti-inflammation effects of the compositions were investigated by measuring the UVB-induced generation of pro-inflammatory cytokines (IL-1α, IL-1β, IL-6, IL-8, and TNF-α) in the epidermis.
The normal human epidermal keratinocytes (NHEK cell line) were incubated in the keratinocyte-SFM medium (serum-free medium) at 95% humidity in 5% carbon dioxide at 37° C. The cells were placed (3×10^4 cells/wall) into the 96-well plate and allowed to adhere 24 hours. The cells were treated with the composition 6, 16 or green tea extract in the concentration of 50 μg/ml. DMSO (dimethyl sulfoxide) was used as a solvent and the final concentration of DMSO was 0.1% (v/v). After incubation for 24 hours, the cells were was irradiated with UVB (40 mJ/cd). The cultured supernatants were collected 24 hour after UVB irradiation. The concentrations of pro-inflammatory cytokines (IL-1β, IL-6, IL-8, and TNF-α) were deteHnined from Human Inflammation Cytometric Bead Assay kit (Becton Deckinson, San Diego, USA). The concentration of IL-1α was measured using the enzyme immunoassay. The results are described in FIG. 2. The negative control indicates the cells which were neither irradiated nor treated with the compositions, and the positive control means the cells which were only irradiated with UVB without treatment of the compositions.

A further series concerns Hamster sebocyte. Kind of series: Suppression of sebocyte proliferation ([3H] thymidine). Type of series: cell-based. The note with it: for % of untreated cell / cell number (×10^3 d.p.m/well): 12 days; for cell number (×10^3 d.p.m/well): control 2.90 ± 0.20. On the procedure:
Hamster sebocyte were established from sebaceous glands of auricles of the 5 week-old hamsters according to Sato's method. Sebocytes (2.35×10^4 cells/plate) were cultured in DMEM/F12 medium supplemented with 2% FBS and 2% human serum for 24 hours. The cells were treated with the composition 6 and 14 in different concentrations one time per 3 days for 12 days. The [^3H] thymidine (1 kBq/well) (Amersham Bioscience) was added 3 hours before the final treatment. The amount of [^3H] thymidine combined with DNA was measured by using liquid scintillation counter. The cell proliferation activity was determined as compared with negative control.

Series [5] has as its system rat basophilic leukemia cell (RBL-2H3). Kind of series: Inhibition on histamine release (DNP-BSA stimulated). Type of series: cell-based. The note with it: 50 μg/ml, RBL-2H3 cells, vs negative control. As to the method: In order to assess the anti-inflammation and anti-allergic activities of the compositions in the present invention, the inhibitory effects of the compositions on histamine synthesis, which closely related with inflammation including allergy, were investigated. The inhibitory effects of the compositions on histamine synthesis were assessed using the rat basophilic leukemia cell (RBL-2H3) according to the Kawasaki's method. After the cell (1×10^5 cells/well) was cultured in RPMI 1640 medium supplemented with 2% FBS (fetal bovine serum) and rat anti-DNP (dinitrophenol) IgE at 37° C. for 120 min, the cell was washed with the HPEPS buffer to remove the residual IgE. The cells was incubated in either absence (negative control) or presence (test group) of the com[…]. for 10 min. The cell was then treated with DNP-BSA (Dinitrophenol-conjugated Bovine serum albumin), as a histamine release antigen, for 1 hour at 37° C. After the reaction was stopped by adding the HEPES buffer solution, the supernatant was collected and treated with 20 μl of the perchloric acid and centrifuged. The histamine release in the supernatant was measured using the HPLC. The % inhibitions on histamine release of test group were calculated by following Equation compared with negative control. […] H: histamine release of test group H0: histamine release of negative control

In series [6] the test system is TG (triacyl glycerol) synthesis. Kind of series: Inhibition of TG synthesis in hamster auricles. Type of series: in vivo. As to the method:
The prevention and treatment effects of the compositions on the acne were assessed through the inhibition of TG (triacyl glycerol) synthesis and sebocyte proliferation in hamster model.
The inhibitory effects of the composition 6 and 14 on TG synthesis were assessed as compared with catechin (positive control group). 5 week-old male hamster was divided into three groups (negative control group, test group, positive control group) and housed 10 animals to a cage after the acclimatization for 2 weeks. Animal rooms were maintained at 25±1° C. and 55% of humidity with a 12-hr light/dark cycle. The animals were freely accessed to diet and water throughout the study. The auricles of hamster were topically treated once a day for 14 days with 200 μl of 10% of the composition 6, 14 or catechin. The solvent for topical application was composed of a mixture of ethanol and glycerol (95:5, v/v). The animals in negative control group were treated with the same volume of vehicle. The auricles were separated from the body and the sebum generated on the skin surface was extracted with acetone. The amount of TG in skin surface was calculated from the sebum extracts. Sebocyte were suspended into solution from the auricle tissues using sonicator, and then amount of intercellar TG was determined by automatic thin-layer chromatography using triolate as a standard. The relative TG concentrations of each sample were calculated from comparison with negative control.

Where [7] appears, read: sample concentration 10 (unit not given).
The mark [8] stands for this setting: sample concentration 20 (unit not given).
Where [9] appears, read: sample concentration 40 (unit not given).
Setting [10] is: hamster auricles, 200 μl of 10% solution topically once a day for 14 days, control group = 100.

As to `Oc1cc(O)cc(Oc2c(O)cc(O)c3c2Oc2c(cc(O)c(-c4c(O)cc5c(c4O)Oc4c(Oc6cc(O)cc(O)c6)c(O)cc(O)c4O5)c2O)O3)c1` [composition 6], in series [1], the “LD50 (μM) NB1RGB cell” value turned out to be 97.3 µM. Further, the “LD50 (μM) NHEK (F) cell” value in series [2] is 105.4 µM. For the same compound, in series [3], the “Inhibitory effect on melanin synthesis (%)” value worked out at 89.8%. Moreover, the “Inhibition of Elastase (%)” value with elastase was 89.9%. The “levels of pro-inflammatory cytokines” value in series [4] is on record as “significantly decrease levels of pro-inflammatory cytokines”. Also, the sebocyte proliferation entry in the series on Hamster sebocyte (Table 9, in words) is “significantly suppressed sebocyte proliferation”. For the same compound, in the series with Hamster sebocyte (setting [7]), the “% of untreated cell” value was 78.4% and the “cell number (×10^3 d.p.m/well)” value is reported as 2.26 ± 0.67 ×10^3 d.p.m/well. In the series on Hamster sebocyte (setting [8]), the “% of untreated cell” value was 30.2% and the “cell number (×10^3 d.p.m/well)” value is recorded as 0.87 ± 0.07 ×10^3 d.p.m/well. Also, in the series on Hamster sebocyte (setting [9]), the “% of untreated cell” value is reported as 10.4% and the “cell number (×10^3 d.p.m/well)” value was 0.30 ± 0.05 ×10^3 d.p.m/well. Moreover, the “% Inhibition on histamine release” value in series [5] stood at 75.9%. In addition, the “sebum production on skin surface and in the skin cell” value in series [6] (compared with negative control) was “significantly decrease sebum production”. In series [6] (setting [10]), the “Relative TG concentration in the skin cell (%)” value was 54.9% and the “Relative TG concentration in the skin surface (%)” value is 66.2%.
